Where no end group is shown, it is not given here.
Tests used:
[1] = target: rat SENR (sensory epithelium neuropeptide-like receptor) (rat); assay: cell-based or functional assay
human SENR (human) = assay: cell-based or functional assay
[2] = Blood pressure of rats under anesthesia; assay type: in vivo, Male Wistar rats; conditions: 10 nmols/kg intravenous, 8 rats, average + standard error
Procedure: The activity of the synthetic SENR ligand polypeptides ① and ② (SEQ ID NO:7 and SEQ ID NO:8) in various concentrations, which were synthesized in EXAMPLES 12 and 13, on blood pressure of rats under anesthesia was measured by the following method. Male Wistar rats of 8 to 9 weeks old (purchased from Nippon Crea Co.) were anesthetized with Nembutal injection (Dai-Nippon Pharmaceutical Co., 50 mg/ml sodium pentobarbital, 50 mg/kg i.p.). A catheter (SP-55) for blood pressure measurement connected with a transducer was inserted into the left carotid artery and a catheter (SP-35) for intravenous injection into the left femoral vein. The synthetic ligand was dissolved in physiological saline containing 0.05% BSA, which was cannulated through the left femoral vein in a dose of 1, 10 or 100 nmol/kg. The blood pressure was continuously recorded by means of a polygraph (manufactured by NEC Sanei Co.). […] The hypotensive action was shown by the average blood pressure reduced by administration of SENR ligand to the average blood pressure prior to administration. […]

rat SENR [3] = assay: cAMP synthesis suppression in rat SENR-expression CHO cells; assay type: cell-based; conditions: forskolin
Procedure: A method for the cAMP synthesis suppressing activity of the bovine SENR ligand (SEQ ID NO:21) synthesized in EXAMPLE 14 on rat SENR-expression CHO cells is shown below. The CHO/SENR cells were inoculated on a 24-well plate in 5 × 10^4 cells/well followed by cultivation for 48 hours. The cells were then washed with Hanks' buffer (pH 7.4) containing 0.2 mM 3-isobutyl-methylxanthine, 0.05% BSA and 20 mM HEPES (hereinafter Hanks' buffer (pH 7.4) containing 0.2 mM 3-isobutyl-methylxanthine, 0.05% BSA and 20 mM HEPES is referred to as a reaction buffer). Thereafter, 0.5 ml of the reaction buffer was added to the system, which was kept in the medium for 30 minutes. The reaction buffer was removed and 0.25 ml of a fresh reaction buffer was added to the cells. Then, 0.25 ml of the reaction buffer containing various amounts of bovine SENR ligand and 2 µM forskolin was added to the cells followed by reacting at 37°C for 24 minutes. By adding 100 µl of 20% perchloric acid, the reaction was terminated. The reaction mixture was then allowed to stand on ice for an hour to extract intracellular CAMP. The amount of cAMP in the extract was measured using cAMP EIA kit (Amersham Pharmacia Biotech).

rat SENR [4] = assay: GTPγS binding to rat SENR-expression CHO cell membrane fraction; assay type: biochemical; conditions: peptide in various concentrations, 25°C 1 hour
Procedure: The [^35S] -guanosine 5'-(γ-thio)triphosphate binding promoting activity of bovine SENR ligand (SEQ ID NO:21) on SENR-expression CHO cell membrane fraction was measured by the following method. First, preparation of membrane fraction is described. To 1 x 10^8 of CHO/SENR cells was added 10 ml of a homogenate buffer (10 mM NaHCO3, 5 mM EDTA, 0.5 mM PMSF, 1 µg/ml pepstatin, 4 µg/ml E64, 20 µg/ml leupeptin), which was homogenized by using Polytron (12,000 rpm, 1 min.). The cell homogenate was subjected to centrifugation (1,000 g, 15 mins.) to give the supernatant. Next, the supernatant was subjected to ultracentrifugation (Beckman type 30 rotor, 30,000 rpm, 1 hour). The resulting precipitate was used as a rat SENR-expression CHO cell membrane.
The GTPγS binding activity was measured as follows. The rat SENR-expression CHO cell membrane was diluted with a buffer for membrane dilution (50 mM Tris-hydrochloride buffer (pH 7.4), 5 mM MgCl2, 150 mM NaCl, 1 µM GDP) to prepare a cell membrane fraction solution for assay having a protein concentration of 30 µg/ml. […] After washing twice with 1.5 ml of a buffer for filter washing (50 mM Tris-hydrochloride buffer (pH 7.4), 5 mM MgCl2, 1 mM EDTA, 0.1% BSA), radioactivity of the filter was measured using a liquid scintillation counter.

Substance: bovine SENR ligand (peptide)
- cAMP synthesis suppressing activity (forskolin-stimulated; concentration at which an obvious reduction was seen) [1]: 0.3 nM

Substance: human SENR ligand (human urotensin II) (peptide)
- cAMP synthesis suppressing activity (forskolin-stimulated; concentration at which an obvious reduction was seen) (human SENR (human)): 0.3 nM

Substance: GPPSECFWKYCV (cysteine pairing not given here) [Bovine SENR ligand, Cys 6th and 11th form intramolecular disulfide bond]
- Average blood pressure decreased [2]: 35.7 ± 7.0 mmHg
- amount of intracellular cAMP (rat SENR [3]; increasing peptide concentration): decreased dose dependently
- amount of intracellular cAMP (rat SENR [3]; peptide 0.3 nM, 37°C 24 minutes): obviously reduced
- amount of [^35S]-guanosine 5'-(γ-thio)triphosphate bound to the membrane fraction (rat SENR [4]): dose-dependently increased
